Test results from patent US3935236A, “Aminopropanol substituted isochromanones and phthalides” (Gruppo Lepetit, S.p.A., priority 1973, dated 1976).
Where two headings read alike, the source gives them in different places.

What was measured:
β-receptors = target: T1, β-receptors (Canis lupus familiaris, UniProt P79148); assay: antagonizing isopropylnoradrenaline induced tachycardia in conscious dogs (i.v.); assay type: in vivo; settings: dog, iv, read-out: ED50 in antagonizing isopropylnoradrenaline induced tachycardia
T1 construct: tachycardia in conscious dogs; from tissue; host or cells: heart in the living conscious dog (in vivo, i.v. dosing)
T1 sequence (P79148 whole entry): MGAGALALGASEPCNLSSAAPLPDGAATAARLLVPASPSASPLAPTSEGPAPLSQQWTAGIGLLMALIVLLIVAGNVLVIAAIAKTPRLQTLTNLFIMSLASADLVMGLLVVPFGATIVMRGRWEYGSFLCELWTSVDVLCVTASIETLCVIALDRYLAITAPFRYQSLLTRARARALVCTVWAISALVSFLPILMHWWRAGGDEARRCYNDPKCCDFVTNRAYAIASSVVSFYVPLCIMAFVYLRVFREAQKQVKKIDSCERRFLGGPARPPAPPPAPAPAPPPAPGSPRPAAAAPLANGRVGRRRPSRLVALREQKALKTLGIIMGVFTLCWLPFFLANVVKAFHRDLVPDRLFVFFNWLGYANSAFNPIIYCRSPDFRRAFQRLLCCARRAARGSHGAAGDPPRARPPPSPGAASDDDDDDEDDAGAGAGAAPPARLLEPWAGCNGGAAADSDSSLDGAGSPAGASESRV
From the text: As a standard compound pronethalol was taken into consideration. Pronethalol, i.e. 2-isopropylamino-1-([…])-ethanol, is a known β-blocking agent.

LD50 os (acute toxicity) = settings: in vivo, po

Compound	ED50 (β-receptors; conscious dogs, i.v.)	LD50 (LD50 os (acute toxicity))	ED50 (β-receptors)
CC(C)NCC(O)COc1ccc2c(c1)C(=O)OC2 (centres unmarked) [Example 2, 6-(2-Hydroxy-3-isopropylamino-propoxy)-phthalide]	0.3 mg/kg	> 500 mg/kg	–
CCC1Cc2c(OCC(O)CNC(C)(C)C)cc(OC)cc2C(=O)O1.Cl (centres unmarked) [Example 14, 3-Ethyl-5-(2-hydroxy-3-tert-butylamino-propoxy)-7-methoxy-1-isochromanone hydrochloride]	–	> 500 mg/kg	0.1 mg/kg
CC(C)NCC(O)COc1cccc2c1C(=O)OC2.Cl (centres unmarked) [Example 1, 7-(2-Hydroxy-3-isopropylamino-propoxy)-phthalide hydrochloride]	–	> 500 mg/kg	0.01 mg/kg
CC(C)(C)NCC(O)COc1cccc2c1C(=O)OC2.Cl (centres unmarked) [Example 5, 7-(2-Hydroxy-3-tert-butylamino-propoxy)-phthalide hydrochloride]	–	> 500 mg/kg	–
CC(C)CNCC(O)COc1cccc2c1C(=O)OC2.Cl (centres unmarked) [Example 10, 7-(2-Hydroxy-3-isobutylamino-propoxy)-phthalide hydrochloride]	–	> 500 mg/kg	0.1 mg/kg
COc1cc(OCC(O)CNC(C)(C)C)c2c(c1)C(=O)OC(C)(C)C2.O=C(O)C(=O)O (centres unmarked) [Example 15, 5-(2-Hydroxy-tert-butylamino-propoxy)-7-methoxy-3,3-dimethyl-1-isochromanone oxalate]	–	> 500 mg/kg	0.018 mg/kg
CC(C)(C)NCC(O)COc1ccc2c(c1)C(=O)OC2.Cl (centres unmarked) [Example 9, 6-(2-Hydroxy-3-tert-butylamino-propoxy)-phthalide hydrochloride]	–	> 500 mg/kg	0.1 mg/kg
CC(C)NCC(O)COc1ccc2c(c1)C(=O)OCC2.Cl (centres unmarked) [Example 6, 7-(2-Hydroxy-3-isopropylamino-propoxy)-1-isochromanone hydrochloride]	–	> 500 mg/kg	0.1 mg/kg
CC(C)(C)NCC(O)COc1ccc2c(c1)C(=O)OCC2.Cl (centres unmarked) [Example 7, 7-(2-Hydroxy-3-tert-butylamino-propoxy)-1-isochromanone hydrochloride]	–	> 500 mg/kg	0.055 mg/kg
CC(C)(C)NCC(O)COc1cccc2c1COC2=O.Cl (centres unmarked) [Example 8, 4-(2-Hydroxy-3-tert-butylaminopropoxy)-phthalide hydrochloride]	–	> 500 mg/kg	0.07 mg/kg
COc1cc(OCC(O)CNC(C)(C)C)c2c(c1)C(=O)OC(C)C2.Cl (centres unmarked) [Example 13, 5-(2-Hydroxy-3-tert-butylamino-propoxy)-7-methoxy-3-methyl-1-isochromanone hydrochloride]	–	> 500 mg/kg	0.005 mg/kg
CC(C)(C)NCC(O)COc1cccc2c1C(=O)OCC2.Cl (centres unmarked) [Example 12, 8-(2-Hydroxy-3-tert-butylamino-propoxy)-1-isochromanone hydrochloride]	–	> 500 mg/kg	0.003 mg/kg
